In publication PMC2365101, “Anti-Inflammatory Activity of (Polyphenolic)-Sulfonates and Their Sodium Salts in Rodents” (Metal-Based Drugs, 1998) one finds IC50 data, which are given here for one molecule.

In the experiment the target is J774-A1 prostaglandin cyclooxygenase. Nature of the experiment: Prostaglandin cyclooxygenase activity in J774-A1 macrophages. The experiment is classed as cell-based, mouse. As to conditions: 60 min; read-out: IC50 Cyclo-oxygenase J774-A1. From the text: Few reports in the literature indicate interaction at these receptor sites other than by peptides or antibodies. […] Blocking these receptors is desirable because the entire inflammation cascade of events is triggered by the early release of TNFa and IL-1. […] Radioisotopes were obtained from New England Nuclear [Dupont, Boston, MA] and substrates and co- factors were obtained from Sigma Chemical Co. [St. Louis, MO]. […] Cell lines were obtained from American Type Culture Collection [Rockville, MD]. In Vivo Tests Anti-inflammatory screen in mice: Male CF male mice weighing 28-32g obtained from Jackson Lab. [Bar Harbor, […]] were used to screen agents at 8 or 16 mg/kg intraperitoneal [I.P.] x 2 administered 3 hr and 30 min prior to administering the irritant, according to Winter's protocol. Evaluation of the induced edema was made by injecting 2% carrageenan in 0.9% saline into the plantar region of the foot. The opposite foot injected with 0.9% isotonic saline was used as a base line. […] Salmonella abortus equi [Lot # 69F4003] […] Drugs from 2 to 16 mg/kg, I.P. were administered 2 hr prior and 2 hr post-injection of the LPS and then subsequently for every 24 hr for the length ofthe animals' lives. Deaths were recorded every 12 hr and continued for 96 hr. […] In vitro TNFa andIL-1 Measurements and Cellular Regulation IC-21 mouse macrophages were maintained in RPMI-1640 + 10% FCS + P/S. After the cells had grown to confluency, E. coli LPS at 10 Ixg/ml was added to the medium. Agents were incubated at 12.5 to 100 µM final concentration for 18 hr. The medium (100 btl) was collected for TNFCt determinations. Interleukin-1 [IL-1] release was determined using P388D1 cells which were maintained in RPMI-1640 + 10% FCS + P/S. The L929 bioassay was used to quantitate the TNF and the IL-1 levels. The L929 mouse fibroblasts were grown in DMEM + 10% FCS + P/S to confluency in 96 well plates and incubated with 100 tl ofmedium from […] or P388D cells after 18 hr. The cells were stained with 0.2% crystal violet in 20% MeOH and read at 580 nm using a Molecular Devices scanner (SOFT-max program). High Affinity Binding to Receptors on L929-106 Cells Two laCi of 125I-TNFct (human recombinant, 30 mCi/tg New England Nuclear) or 125I-IL-1 (70-120[.t Ci/lxg,New England Nuclear) was added to confluency L929 cells for 90 min or 5 hr, respectively with 25, 50 and 100 tM of the test compounds 12]. The cells were washed repeatedly with isotonic saline, pH.7.2 and aliquots counted. Prostaglandin cylcooxygenase activity Mouse J774AI macrophages maintained in Dulbecco's modified Eagle's medium + 15% FCS + P/S. Cells (5 x 106) were incubated with agents (5 to 100 ].tM final concentration) and 3H-arachidonic acid (100 Ci/mol) for 60 min at 37C in a CO2 incubator. The reaction was terminated with 2N HCI, the mixture extracted 2 X with ether, and the organic layer evaporated.

The term IC50 denotes the concentration that inhibits the measured activity by half.

For `CC(=O)Oc1c2cc(S(=O)(=O)[O-])cc1Cc1cc(S(=O)(=O)[O-])cc(c1OC(C)=O)Cc1cc(S(=O)(=O)[O-])cc(c1OC(C)=O)Cc1cc(S(=O)(=O)[O-])cc(c1OC(C)=O)Cc1cc(S(=O)(=O)[O-])cc(c1OC(C)=O)Cc1cc(S(=O)(=O)[O-])cc(c1OC(C)=O)Cc1cc(S(=O)(=O)[O-])cc(c1OC(C)=O)Cc1cc(S(=O)(=O)[O-])cc(c1OC(C)=O)C2.[Na+].[Na+].[Na+].[Na+].[Na+].[Na+].[Na+].[Na+]` [Compound 8], the IC50 was found to be 33.3 µM.
